Results from PubChem BioAssay AID248 (DTP/NCI, 2004).
“And” between values parts separate entries of the source, which are not always exact repeats. Equal entries are not always repeated. Inconclusive results and toxic doses are left out. Cut-off read from the data, not from the text of the source: active = T/C of 150% or more; inactive = T/C below 125%.

Tested on: L1210 leukemia ip in BDF1 mice, survival T/C
Test: NCI In Vivo Anticancer Drug Screen. Data for tumor model L1210 Leukemia (intraperitoneal) in B6D2F1 (BDF1) mice
Conditions: endpoint: mean survival time, higher = longer survival
Procedure, shortened: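 Each compound was tested against a transplantable tumor grown in mice. The endpoint was survival, with treated animals benchmarked against vehicle controls as a simple ratio.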

[1] = dose: 100.0 mg/kg/injection, schedule: Q01DX001 (ip), vehicle: saline
[2] = dose: 200.0 mg/kg/injection, schedule: Q01DX001 (ip), vehicle: saline
[3] = dose: 100.0 mg/kg/injection, schedule: Q04DX002 (ip), vehicle: saline
[4] = dose: 200.0 mg/kg/injection, schedule: Q04DX002 (ip), vehicle: saline
[5] = dose: 400.0 mg/kg/injection, schedule: Q04DX002 (ip), vehicle: saline
[6] = dose: 200.0 mg/kg/injection, schedule: Q01DX001 (ip), vehicle: other
[7] = dose: 400.0 mg/kg/injection, schedule: Q01DX001 (ip), vehicle: other
[8] = dose: 100.0 mg/kg/injection, schedule: Q01DX001 (ip), vehicle: other
[9] = dose: 100.0 mg/kg/injection, schedule: Q04DX003 (ip), vehicle: Klucel (hydroxypropylcellulose) (HPC)
[10] = dose: 200.0 mg/kg/injection, schedule: Q04DX003 (ip), vehicle: Klucel (hydroxypropylcellulose) (HPC)
[11] = dose: 400.0 mg/kg/injection, schedule: Q04DX003 (ip), vehicle: Klucel (hydroxypropylcellulose) (HPC)
[12] = dose: 100.0 mg/kg/injection, schedule: Q04DX003 (ip), vehicle: saline with Tween-80
[13] = dose: 200.0 mg/kg/injection, schedule: Q04DX003 (ip), vehicle: saline with Tween-80
[14] = dose: 400.0 mg/kg/injection, schedule: Q04DX003 (ip), vehicle: saline with Tween-80
[15] = dose: 12.5 mg/kg/injection, schedule: Q01DX009 (ip), vehicle: saline
[16] = dose: 50.0 mg/kg/injection, schedule: Q04DX003 (ip), vehicle: saline
[17] = dose: 100.0 mg/kg/injection, schedule: Q01DX009 (ip), vehicle: saline with Tween-80

Measured: T/C

CCCCCCCC/C=C\CCCCCCCC(=O)O.[Fe]
inactive: [1] 93 % of control | [2] 95 % of control | dose: 400.0 mg/kg/injection, schedule: Q01DX001 (ip), vehicle: saline 90 % of control

O=C(NCC1CC1)Nc1cccc2ccccc12
inactive: dose: 100.0 mg/kg/injection, schedule: Q01DX009 (ip), vehicle: other 98 % of control | dose: 200.0 mg/kg/injection, schedule: Q01DX009 (ip), vehicle: other 89 % of control | dose: 400.0 mg/kg/injection, schedule: Q01DX009 (ip), vehicle: other 92 % of control

O=C(O)C=C(CBr)CBr
inactive: dose: 10.0 mg/kg/injection, schedule: Q01DX001 (ip), vehicle: saline 93 % of control | dose: 20.0 mg/kg/injection, schedule: Q01DX001 (ip), vehicle: saline 94 % of control | dose: 40.0 mg/kg/injection, schedule: Q01DX001 (ip), vehicle: saline 109 % of control

CN(C)CCN=C(N)N[N+](=O)[O-]
inactive: [3] 110 % of control | [4] 96 % of control | [5] 100 % of control

c1ccn2nncc2c1
inactive: dose: 100.0 mg/kg/injection, schedule: Q01DX001 (ip), vehicle: carboxymethylcellulose (CMC) 103 % of control | dose: 200.0 mg/kg/injection, schedule: Q01DX001 (ip), vehicle: carboxymethylcellulose (CMC) 90 % of control

O=C(O)CCCN1CCCCC1
inactive: [3] 103 % of control | [4] 100 % of control | [5] 100 % of control

O=C(C(O)C(O)C(O)C(O)CO)N1CCC(c2ccccc2)(c2ccccc2)CC1 (stereo not drawn)
inactive: dose: 100.0 mg/kg/injection, schedule: Q01DX003 (ip), vehicle: saline 91 % of control | dose: 200.0 mg/kg/injection, schedule: Q01DX003 (ip), vehicle: saline 94 % of control | dose: 400.0 mg/kg/injection, schedule: Q01DX003 (ip), vehicle: saline 87 % of control

O=C(CCCC(=O)N/N=C/c1ccc(Cl)cc1)N/N=C\c1ccc(Cl)cc1
inactive: dose: 50.0 mg/kg/injection, schedule: Q01DX001 (ip), vehicle: other 102 % of control | [6] 91 % of control | [7] 91 % of control

CCOC(CN=Cc1cc(C)c2[nH]c3ccc(OC)cc3c2c1C)OCC
inactive: [8] 96 % of control | [9] 98 % of control | [6] 102 % of control | [10] 96 % of control | [7] 98 % of control | [11] 96 % of control

C=CCC1(/C(=C\CC)CCC)C(=O)NC(=O)NC1=O
inactive: dose: 75.0 mg/kg/injection, schedule: Q01DX001 (ip), vehicle: saline 96 % of control

CCCCCCC(C)CCCC (stereo not drawn)
inactive: dose: 100.0 mg/kg/injection, schedule: Q01DX001 (ip), vehicle: saline with Tween-80 94 % of control | dose: 200.0 mg/kg/injection, schedule: Q01DX001 (ip), vehicle: saline with Tween-80 91 % of control | dose: 400.0 mg/kg/injection, schedule: Q01DX001 (ip), vehicle: saline with Tween-80 86 % of control

CC(C)N(SSN(C(C)C)C(C)C)C(C)C
inactive: [12] 95 % of control | [13] 100 % of control | [14] 89 % of control

C1CC[N+]2(CC1)CCC2
inactive: dose: 12.0 mg/kg/injection, schedule: Q04DX003 (ip), vehicle: saline 106 % of control | [15] 97 % of control | dose: 25.0 mg/kg/injection, schedule: Q01DX009 (ip), vehicle: saline 100 % of control | dose: 25.0 mg/kg/injection, schedule: Q04DX003 (ip), vehicle: saline 94 % of control | dose: 50.0 mg/kg/injection, schedule: Q01DX009 (ip), vehicle: saline 100 % of control | [16] 111 % of control | [1] 107 % of control | [2] 115 % of control

COC(=O)C1C2CCc3cc(OC)ccc3C2CCC1(C)C(=O)O (stereo not drawn)
inactive: [9] 95 % of control | [10] 95 % of control | [11] 91 % of control

O=c1[nH]nc(SCc2ccccc2)c(=O)n1C(c1ccccc1)c1ccccc1
inactive: [8] 90 % of control | [6] 90 % of control | [7] 98 % of control

Cc1ccc(Nc2nc(N)nc(N)c2Cl)cc1
inactive: dose: 50.0 mg/kg/injection, schedule: Q01DX009 (ip), vehicle: saline with Tween-80 94 % of control | [17] 91 % of control

O=C1CCC(=O)N1CC(O)COc1ccc(Cl)cc1 (stereo not drawn)
inactive: [17] 96 % of control | dose: 200.0 mg/kg/injection, schedule: Q01DX009 (ip), vehicle: saline with Tween-80 101 % of control | dose: 400.0 mg/kg/injection, schedule: Q01DX009 (ip), vehicle: saline with Tween-80 104 % of control

O=C(CCCN1CCC2(CC1)C(=O)NCN2c1ccccc1)c1ccc(F)cc1
inactive: dose: 0.78 mg/kg/injection, schedule: Q01DX009 (ip), vehicle: saline 96 % of control | dose: 0.78 mg/kg/injection, schedule: Q04DX003 (ip), vehicle: saline 98 % of control | dose: 1.56 mg/kg/injection, schedule: Q01DX009 (ip), vehicle: saline 105 % of control | dose: 1.56 mg/kg/injection, schedule: Q04DX003 (ip), vehicle: saline 96 % of control | dose: 3.12 mg/kg/injection, schedule: Q01DX009 (ip), vehicle: saline 107 % of control | dose: 3.12 mg/kg/injection, schedule: Q04DX003 (ip), vehicle: saline 105 % of control | dose: 6.25 mg/kg/injection, schedule: Q01DX009 (ip), vehicle: saline 97 % of control | dose: 6.25 mg/kg/injection, schedule: Q04DX003 (ip), vehicle: saline 106 % of control | [15] 92 % of control | dose: 12.5 mg/kg/injection, schedule: Q04DX003 (ip), vehicle: saline 124 % of control | [16] 120 % of control | dose: 200.0 mg/kg/injection, schedule: Q04DX003 (ip), vehicle: saline 93 % of control

O=C(Nc1ccccc1Cl)Oc1ccccc1-c1ccccc1
inactive: dose: 100.0 mg/kg/injection, schedule: Q04DX002 (ip), vehicle: Klucel (hydroxypropylcellulose) (HPC) 106 % of control | dose: 200.0 mg/kg/injection, schedule: Q04DX002 (ip), vehicle: Klucel (hydroxypropylcellulose) (HPC) 113 % of control | dose: 400.0 mg/kg/injection, schedule: Q04DX002 (ip), vehicle: Klucel (hydroxypropylcellulose) (HPC) 120 % of control

O=C(NCCc1nc(-c2nc(C(=O)O)cs2)cs1)c1ccccc1
inactive: [12] 103 % of control | [13] 94 % of control | [14] 92 % of control

CC1(C)[C@H]2CC[C@@]1(C)C(=O)[C@H]2[N+](=O)[O-]
inactive: [9] 103 % of control | [10] 86 % of control | [11] 93 % of control

O=c1ccncn1Cc1ccccc1
inactive: dose: 100.0 mg/kg/injection, schedule: Q01DX001 (ip), vehicle: Klucel (hydroxypropylcellulose) (HPC) 100 % of control | dose: 200.0 mg/kg/injection, schedule: Q01DX001 (ip), vehicle: Klucel (hydroxypropylcellulose) (HPC) 97 % of control | dose: 400.0 mg/kg/injection, schedule: Q01DX001 (ip), vehicle: Klucel (hydroxypropylcellulose) (HPC) 91 % of control

NC(N)=N/N=C/c1ccccc1O
inactive: dose: 15.0 mg/kg/injection, schedule: Q01DX Z (ip), vehicle: saline 98 % of control and 91 % of control | dose: 31.0 mg/kg/injection, schedule: Q01DX Z (ip), vehicle: saline 87 % of control and 91 % of control | dose: 63.0 mg/kg/injection, schedule: Q01DX Z (ip), vehicle: saline 87 % of control | dose: 125.0 mg/kg/injection, schedule: Q01DX Z (ip), vehicle: saline 87 % of control
